The text below walks through data of ChEMBL document CHEMBL1201862, “PubChem BioAssay data set” (2004).

What all share (type): functional
Experiment [1] addresses T1, Sphingosine 1-phosphate receptor 4 (Homo sapiens, UniProt O95977).
T1 sequence (O95977 whole entry): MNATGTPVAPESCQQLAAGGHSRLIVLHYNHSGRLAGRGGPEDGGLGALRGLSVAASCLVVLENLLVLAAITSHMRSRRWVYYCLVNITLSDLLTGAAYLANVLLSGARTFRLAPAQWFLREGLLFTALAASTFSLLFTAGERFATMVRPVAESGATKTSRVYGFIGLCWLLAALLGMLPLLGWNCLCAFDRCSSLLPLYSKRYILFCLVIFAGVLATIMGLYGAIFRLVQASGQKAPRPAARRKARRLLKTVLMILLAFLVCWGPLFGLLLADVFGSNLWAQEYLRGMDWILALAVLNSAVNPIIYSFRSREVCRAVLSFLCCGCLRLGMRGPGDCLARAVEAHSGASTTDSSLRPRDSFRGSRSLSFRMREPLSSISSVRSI
The experiment in a line: Late-stage fluorescence dose-response cell-based counterscreen assay to identify agonists of the Sphingosine 1-Phosphate Receptor 4 (S1P4): Sphingosine 1-Phosphate Receptor 4 (S1P4) antagonist assay Set 2.

Experiment [2] has as its target T2, Sphingosine 1-phosphate receptor 1 (Homo sapiens, UniProt P21453). The experiment is described as follows: Late-stage fluorescence-based dose-response cell-based counterscreen assay to identify agonists of the Sphingosine 1-Phosphate Receptor 4 (S1P4): Sphingosine 1-Phosphate Receptor 1 (S1P1) antagonist assay.
Experiment [3] addresses T3, Sphingosine 1-phosphate receptor 2 (Homo sapiens, UniProt O95136). The experiment in a line: Late-stage fluorescence-based dose-response cell-based counterscreen assay to identify agonists of the Sphingosine 1-Phosphate Receptor 4 (S1P4): Sphingosine 1-Phosphate Receptor 2 (S1P2) antagonist assay Set 2.
Experiment [4] has as its target T1, Sphingosine 1-phosphate receptor 4. The experiment in a line: Late-stage fluorescence-based dose-response cell-based counterscreen assay to identify agonists of the Sphingosine 1-Phosphate Receptor 4 (S1P4): inhibition by S1P4-selective antagonist control.
Experiment [5] has the same target. The experiment in a line: Late-stage fluorescence-based dose-response cell-based counterscreen assay to identify agonists of the Sphingosine 1-Phosphate Receptor 4 (S1P4): inhibition by S1P4-selective antagonist 100 nM.
The target in experiment [6] is T2, Sphingosine 1-phosphate receptor 1. The experiment in a line: Late-stage fluorescence-based dose-response cell-based counterscreen assay to identify agonists of the Sphingosine 1-Phosphate Receptor 4 (S1P4): Sphingosine 1-Phosphate Receptor 1 (S1P1) agonist assay Set 2.
Experiment [7] concerns the target T1, Sphingosine 1-phosphate receptor 4. The experiment is described as follows: Late-stage fluorescence-based dose-response cell-based counterscreen assay to identify agonists of the Sphingosine 1-Phosphate Receptor 4 (S1P4): inhibition by S1P4-selective antagonist 33 nM.
Experiment [8] shares this target. The experiment in a line: (§1) Late-stage fluorescence-based dose-response cell-based counterscreen assay to identify agonists of the Sphingosine 1-Phosphate Receptor 4 (S1P4): inhibition by S1P4-selective antagonist […].
The target is the same in experiment [9]. The experiment in a line: Late-stage fluorescence-based dose-response cell-based counterscreen assay to identify agonists of the Sphingosine 1-Phosphate Receptor 4 (S1P4): inhibition by S1P4-selective antagonist 0.4 nM.
Experiment [10] concerns the target T4, Sphingosine 1-phosphate receptor 3 (Homo sapiens, UniProt Q99500). The experiment in a line: Late-stage fluorescence-based dose-response cell-based counterscreen assay to identify agonists of the Sphingosine 1-Phosphate Receptor 4 (S1P4): Sphingosine 1-Phosphate Receptor 3 (S1P3) agonist assay Set 2.
The target of experiment [11] is T1, Sphingosine 1-phosphate receptor 4. The experiment is described as follows: Late-stage fluorescence-based dose-response cell-based counterscreen assay to identify agonists of the Sphingosine 1-Phosphate Receptor 4 (S1P4): inhibition by S1P4-selective antagonist 11 nM.
Experiment [12] addresses T4, Sphingosine 1-phosphate receptor 3. The experiment in a line: Late-stage fluorescence-based dose-response cell-based counterscreen assay to identify agonists of the Sphingosine 1-Phosphate Receptor 4 (S1P4): Sphingosine 1-Phosphate Receptor 3 (S1P3) antagonist assay Set 2.
Experiment [13] can be described thus: cell viability after agonist treatment – luminescence, dose response, set 2, assay provider, cytotoxicity control for S1P4 agonist project, late-stage follow-up (AID 504875).
The target of experiment [14] is Sphingosine 1-phosphate receptor 5 (Homo sapiens, UniProt Q9H228). The experiment is described as follows: Late-stage fluorescence-based dose-response cell-based counterscreen assay to identify agonists of the Sphingosine 1-Phosphate Receptor 4 (S1P4): Sphingosine 1-Phosphate Receptor 5 (S1P5) antagonist assay Set 2.
The target in experiment [15] is T1, Sphingosine 1-phosphate receptor 4. Described as §1. This is another data set of the same source.
The target of experiment [16] is T3, Sphingosine 1-phosphate receptor 2. The experiment in a line: activation of human S1P2 receptor – cell-based, fluorescence, set 2, counter-screen for S1P4 agonist project, late-stage follow-up (AID 504873).
Experiment [17] has as its target Neuropeptides B/W receptor type 1 (Homo sapiens, UniProt P48145). The experiment is described as follows: human NPBW1 receptor blockade, IC50 – cell-based, fluorescence, dose response, set 5, late-stage follow-up (AID 588566).
Experiment [18] has as its target Melanin-concentrating hormone receptor 1 (Homo sapiens, UniProt Q99705). The experiment is described as follows: Late-stage fluorescence-based counterscreen for antagonists of the G-protein coupled receptor 7 (GPR7): cell-based dose response assay to identify antagonists of the melanin-concentrating hormone receptor 1 (MCHR1) Set 5.

The structures appear in SMILES notation. Active and inactive are the calls of the source. Unless noted, the calls are words filed in the database; no cut-off is given here.

T3 sequence (O95136 whole entry): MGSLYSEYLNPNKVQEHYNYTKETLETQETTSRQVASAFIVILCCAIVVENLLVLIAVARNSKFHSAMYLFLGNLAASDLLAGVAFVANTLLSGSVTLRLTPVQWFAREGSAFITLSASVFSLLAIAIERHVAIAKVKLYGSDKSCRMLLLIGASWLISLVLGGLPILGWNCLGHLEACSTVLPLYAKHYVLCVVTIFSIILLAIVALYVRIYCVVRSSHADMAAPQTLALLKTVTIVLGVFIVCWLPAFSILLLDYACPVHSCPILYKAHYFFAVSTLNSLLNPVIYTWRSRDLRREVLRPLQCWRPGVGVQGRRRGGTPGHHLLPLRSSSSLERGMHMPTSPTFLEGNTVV
T2 sequence (P21453 whole entry): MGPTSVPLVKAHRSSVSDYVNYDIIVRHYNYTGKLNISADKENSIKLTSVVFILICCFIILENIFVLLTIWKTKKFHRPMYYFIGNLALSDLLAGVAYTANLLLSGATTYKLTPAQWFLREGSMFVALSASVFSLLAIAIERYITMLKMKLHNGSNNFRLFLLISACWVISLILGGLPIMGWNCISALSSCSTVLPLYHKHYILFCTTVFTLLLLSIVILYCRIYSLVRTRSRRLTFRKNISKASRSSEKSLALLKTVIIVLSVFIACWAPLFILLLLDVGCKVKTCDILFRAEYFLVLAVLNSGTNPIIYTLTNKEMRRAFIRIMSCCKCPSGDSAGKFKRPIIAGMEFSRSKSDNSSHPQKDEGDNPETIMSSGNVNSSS
T4 sequence (Q99500 whole entry): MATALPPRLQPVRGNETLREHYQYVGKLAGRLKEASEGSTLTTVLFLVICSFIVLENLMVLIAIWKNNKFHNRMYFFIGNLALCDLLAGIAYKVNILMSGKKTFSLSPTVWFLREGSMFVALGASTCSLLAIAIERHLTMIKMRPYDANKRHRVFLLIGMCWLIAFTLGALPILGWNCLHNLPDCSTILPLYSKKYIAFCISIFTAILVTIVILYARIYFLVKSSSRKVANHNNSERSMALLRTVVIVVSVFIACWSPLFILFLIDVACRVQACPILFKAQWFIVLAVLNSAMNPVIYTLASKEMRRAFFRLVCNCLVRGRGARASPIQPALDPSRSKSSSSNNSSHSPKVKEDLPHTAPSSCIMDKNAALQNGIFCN
Chain of Neuropeptides B/W receptor type 1 (P48145 whole entry): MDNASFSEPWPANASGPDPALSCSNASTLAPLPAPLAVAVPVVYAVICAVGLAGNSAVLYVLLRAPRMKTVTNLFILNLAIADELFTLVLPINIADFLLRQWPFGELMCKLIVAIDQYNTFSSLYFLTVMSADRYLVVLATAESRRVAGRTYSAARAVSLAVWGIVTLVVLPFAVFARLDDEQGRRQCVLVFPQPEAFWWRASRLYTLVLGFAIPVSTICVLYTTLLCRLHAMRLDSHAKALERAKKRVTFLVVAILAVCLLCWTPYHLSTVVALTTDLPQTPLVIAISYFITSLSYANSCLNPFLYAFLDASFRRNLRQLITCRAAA
Chain of Melanin-concentrating hormone receptor 1 (Q99705 whole entry): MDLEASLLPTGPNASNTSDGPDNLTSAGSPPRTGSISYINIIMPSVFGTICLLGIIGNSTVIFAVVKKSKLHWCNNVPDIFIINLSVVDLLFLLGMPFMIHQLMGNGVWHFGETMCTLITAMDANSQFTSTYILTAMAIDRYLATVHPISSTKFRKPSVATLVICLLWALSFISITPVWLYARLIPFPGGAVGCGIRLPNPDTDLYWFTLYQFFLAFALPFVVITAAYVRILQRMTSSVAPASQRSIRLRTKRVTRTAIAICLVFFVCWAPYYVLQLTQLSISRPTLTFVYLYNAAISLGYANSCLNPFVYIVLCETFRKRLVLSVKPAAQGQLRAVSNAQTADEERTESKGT
Chain of Sphingosine 1-phosphate receptor 5 (Q9H228 whole entry): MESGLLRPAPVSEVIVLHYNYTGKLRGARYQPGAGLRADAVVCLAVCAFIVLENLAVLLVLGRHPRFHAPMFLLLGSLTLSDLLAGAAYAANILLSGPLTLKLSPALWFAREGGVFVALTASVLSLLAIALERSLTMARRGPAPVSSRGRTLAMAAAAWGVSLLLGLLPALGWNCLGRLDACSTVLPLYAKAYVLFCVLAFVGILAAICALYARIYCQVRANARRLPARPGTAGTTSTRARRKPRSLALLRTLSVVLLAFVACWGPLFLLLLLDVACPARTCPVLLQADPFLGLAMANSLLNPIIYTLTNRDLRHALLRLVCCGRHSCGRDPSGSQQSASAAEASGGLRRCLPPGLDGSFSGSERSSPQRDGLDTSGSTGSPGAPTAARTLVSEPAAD

As to `COCC/N=C1\S/C(=C\c2cc(C)n(-c3ccc(F)cc3F)c2C)C(=O)N1C`, the IC50 was > 25 µM (inactive) in experiment [1]; > 25 µM (inactive) in experiment [2]; 6.76 µM (active) in [3]; ~8.9 µM (active) in experiment [12]; > 25 µM (inactive) in [14]. Moreover, the concentration giving a half-maximal response (EC50) in experiment [4] is 0.0154 µM (active); in experiment [5], > 3.3 µM (inactive); in experiment [6], > 25 µM (inactive); in experiment [7], > 3.3 µM (inactive); in [8], > 3.3 µM (inactive); in [9], 0.04 µM (active). The EC50 was > 25 µM (inactive) in experiment [10], > 3.3 µM (inactive) in [11], 0.173 µM (active) in experiment [15] and > 25 µM (inactive) in experiment [16]. Also, in experiment [13], the CC50 was > 10 µM (inactive).
As for `COc1ccc(Oc2c(Cl)cnn(CC(=O)C(C)(C)C)c2=O)cc1`, the IC50 in experiment [17] and in experiment [18] was > 20 µM (inactive) in each case.
